Experimental data as given in PubChem BioAssay AID256 (DTP/NCI, 2004).
Several values for one entry are separate records, joined by “and”; a condition that tells them apart may be missing. Equal entries are not always repeated. Toxic doses and inconclusive results are not listed.

System: CD2F1 mice, L1210 leukemia ip, survival T/C
Experiment: NCI In Vivo Anticancer Drug Screen. Data for tumor model L1210 Leukemia (intraperitoneal) in CD2F1 (CDF1) mice
Conditions: higher = longer survival
Summary of the method: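 Vehicle-treated tumor-bearing mice served as controls (C) for compound-treated mice (T). Reported figure is T divided by C.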

[1] = endpoint: mean survival time, dose: 50.0 mg/kg/injection, schedule: Q04DX002 (ip), vehicle: saline with Tween-80
[2] = endpoint: mean survival time, dose: 100.0 mg/kg/injection, schedule: Q04DX002 (ip), vehicle: saline with Tween-80
[3] = endpoint: mean survival time, dose: 100.0 mg/kg/injection, schedule: Q01DX009 (ip), vehicle: saline with Tween-80
[4] = endpoint: mean survival time, dose: 200.0 mg/kg/injection, schedule: Q01DX009 (ip), vehicle: saline with Tween-80

`Cc1ccc(S(=O)(=O)NNC(=O)c2ccccc2C(=O)O)cc1` was tested, and the T/C [1] was 96 % of control, the T/C [2] was 100 % of control and the T/C (endpoint: mean survival time, dose: 200.0 mg/kg/injection, schedule: Q04DX002 (ip), vehicle: saline with Tween-80) was 100 % of control. For the same compound, the T/C (endpoint: mean survival time, dose: 400.0 mg/kg/injection, schedule: Q04DX002 (ip), vehicle: saline with Tween-80) was 96 % of control.

`CCC(=O)/C(=C\c1ccccc1Cl)C(C)=O` was tested, and the T/C [3] was 100 % of control and the T/C [4] was 97 % of control.

With `CC/C=C(\C)CC(C)O` (stereo not given) the T/C (endpoint: mean survival time, dose: 25.0 mg/kg/injection, schedule: Q04DX002 (ip), vehicle: saline with Tween-80) was 93 % of control, the T/C [1] was 89 % of control and the T/C [2] was 89 % of control.

`COc1cc(NS(C)(=O)=O)ccc1Nc1c2ccc([N+](=O)[O-])cc2nc2c(C)cccc12` was tested, and the T/C (endpoint: mean survival time, dose: 3.75 mg/kg/injection, schedule: Q04DX003 (ip), vehicle: saline with Tween-80) was 151 % of control, the T/C (endpoint: mean survival time, dose: 7.5 mg/kg/injection, schedule: Q01DX009 (ip), vehicle: saline with Tween-80) was 111 % of control and the T/C (endpoint: mean survival time, dose: 7.5 mg/kg/injection, schedule: Q04DX003 (ip), vehicle: saline with Tween-80) was 164 % of control. The T/C (endpoint: mean survival time, dose: 15.0 mg/kg/injection, schedule: Q04DX003 (ip), vehicle: saline with Tween-80) was 235 % of control, the T/C (endpoint: mean survival time, dose: 37.5 mg/kg/injection, schedule: Q04DX003 (ip), vehicle: saline) was 109 % of control and the T/C (endpoint: mean survival time, dose: 75.0 mg/kg/injection, schedule: Q04DX003 (ip), vehicle: saline) was 86 % of control.

In the case of `O=C1C=C2C(=CCOC2O)O1` (stereo not given), the T/C (endpoint: mean survival time, dose: 0.25 mg/kg/injection, schedule: Q01DX009 (ip), vehicle: Klucel (hydroxypropylcellulose) (HPC)) is reported as 108 % of control, the T/C (endpoint: mean survival time, dose: 0.5 mg/kg/injection, schedule: Q01DX009 (ip), vehicle: Klucel (hydroxypropylcellulose) (HPC)) is reported as 89 % of control and 106 % of control and the T/C (endpoint: mean survival time, dose: 0.75 mg/kg/injection, schedule: Q01DX009 (ip), vehicle: Klucel (hydroxypropylcellulose) (HPC)) is reported as 103 % of control. For the same compound, the T/C (endpoint: mean survival time, dose: 1.0 mg/kg/injection, schedule: Q01DX009 (ip), vehicle: Klucel (hydroxypropylcellulose) (HPC)) was 101 % of control and 104 % of control, the T/C (endpoint: mean survival time, dose: 1.5 mg/kg/injection, schedule: Q01DX009 (ip), vehicle: Klucel (hydroxypropylcellulose) (HPC)) was 104 % of control and the T/C (endpoint: mean survival time, dose: 2.0 mg/kg/injection, schedule: Q01DX009 (ip), vehicle: Klucel (hydroxypropylcellulose) (HPC)) was 102 % of control and 103 % of control. For the same compound, the T/C (endpoint: mean survival time, dose: 3.0 mg/kg/injection, schedule: Q01DX009 (ip), vehicle: Klucel (hydroxypropylcellulose) (HPC)) was 104 % of control, the T/C (endpoint: mean survival time, dose: 4.0 mg/kg/injection, schedule: Q01DX009 (ip), vehicle: Klucel (hydroxypropylcellulose) (HPC)) was 95 % of control and 106 % of control and the T/C (endpoint: mean survival time, dose: 6.0 mg/kg/injection, schedule: Q01DX009 (ip), vehicle: Klucel (hydroxypropylcellulose) (HPC)) was 96 % of control.

For `CC1(Br)C(Sc2ccccc2[N+](=O)[O-])=Nc2ccccc21` (stereo not given), the T/C (endpoint: mean survival time, dose: 50.0 mg/kg/injection, schedule: Q01DX009 (ip), vehicle: Klucel (hydroxypropylcellulose) (HPC)) was 94 % of control, the T/C (endpoint: mean survival time, dose: 100.0 mg/kg/injection, schedule: Q01DX009 (ip), vehicle: Klucel (hydroxypropylcellulose) (HPC)) was 94 % of control and the T/C (endpoint: mean survival time, dose: 200.0 mg/kg/injection, schedule: Q01DX009 (ip), vehicle: Klucel (hydroxypropylcellulose) (HPC)) was 94 % of control.

For `O=C1NC(=O)C2=C1C1(Cl)C(Cl)=C(Cl)C2(Cl)C1(Cl)Cl`, the T/C (endpoint: mean survival time, dose: 100.0 mg/kg/injection, schedule: Q04DX003 (ip), vehicle: saline with Tween-80) was 103 % of control, the T/C (endpoint: mean survival time, dose: 200.0 mg/kg/injection, schedule: Q04DX003 (ip), vehicle: saline with Tween-80) was 101 % of control and the T/C (endpoint: mean survival time, dose: 400.0 mg/kg/injection, schedule: Q04DX003 (ip), vehicle: saline with Tween-80) was 103 % of control.

`COc1ccc(N=N/N=c2\sc3cc(OC)ccc3n2C)cc1` was tested, and the T/C (endpoint: median survival time, dose: 7.5 mg/kg/injection, schedule: Q01DX005 (ip), vehicle: saline with Tween-80) was 100 % of control, the T/C (endpoint: median survival time, dose: 15.0 mg/kg/injection, schedule: Q01DX005 (ip), vehicle: saline with Tween-80) was 105 % of control and the T/C (endpoint: median survival time, dose: 30.0 mg/kg/injection, schedule: Q01DX005 (ip), vehicle: saline with Tween-80) was 108 % of control. The T/C (endpoint: median survival time, dose: 42.5 mg/kg/injection, schedule: Q01DX005 (ip), vehicle: saline with Tween-80) was 102 % of control, the T/C (endpoint: median survival time, dose: 60.0 mg/kg/injection, schedule: Q01DX005 (ip), vehicle: saline with Tween-80) was 105 % of control and the T/C (endpoint: median survival time, dose: 85.0 mg/kg/injection, schedule: Q01DX005 (ip), vehicle: saline with Tween-80) was 102 % of control. For the same compound, the T/C (endpoint: median survival time, dose: 120.0 mg/kg/injection, schedule: Q01DX005 (ip), vehicle: saline with Tween-80) was 104 % of control and the T/C (endpoint: median survival time, dose: 170.0 mg/kg/injection, schedule: Q01DX005 (ip), vehicle: saline with Tween-80) was 100 % of control.

In the case of `CC1=NN(c2cc(Cl)c(S(=O)(=O)O)cc2Cl)C(=O)C1`, the T/C [3] is reported as 92 % of control, the T/C [4] is reported as 92 % of control and the T/C (endpoint: mean survival time, dose: 400.0 mg/kg/injection, schedule: Q01DX009 (ip), vehicle: saline with Tween-80) is reported as 86 % of control.

For `O=C1C=C(c2ccccc2)C(O)(c2ccccc2)C1` (stereo not given), the T/C (endpoint: mean survival time, dose: 50.0 mg/kg/injection, schedule: Q01DX009 (ip), vehicle: saline with Tween-80) was 89 % of control, the T/C [3] was 104 % of control and the T/C [4] was 89 % of control.

In the case of `Cc1noc2c1ncc[n+]2[O-]`, the T/C (endpoint: mean survival time, dose: 5.0 mg/kg/injection, schedule: Q04DX003 (ip), vehicle: saline) is reported as 101 % of control, the T/C (endpoint: mean survival time, dose: 10.0 mg/kg/injection, schedule: Q04DX003 (ip), vehicle: saline) is reported as 101 % of control and the T/C (endpoint: mean survival time, dose: 20.0 mg/kg/injection, schedule: Q04DX003 (ip), vehicle: saline) is reported as 100 % of control.

For `COC(=O)C1CC2C=CC1CC2` (stereo not given), the T/C (endpoint: mean survival time, dose: 100.0 mg/kg/injection, schedule: Q04DX003 (ip), vehicle: saline) was 97 % of control, the T/C (endpoint: mean survival time, dose: 200.0 mg/kg/injection, schedule: Q04DX003 (ip), vehicle: saline) was 105 % of control and the T/C (endpoint: mean survival time, dose: 400.0 mg/kg/injection, schedule: Q04DX003 (ip), vehicle: saline) was 95 % of control.
